Experimental data from patent US20060165987A1, “Stealthy polymeric biodegradable nanospheres and uses thereof” (priority 2002, published 2006).

How the values were obtained:
[1] = lifetime of free rhodamine; cited from earlier work
[2] = Organ distribution by fluorescence microscopy; format: in vivo; conditions: rats, after IV injection of nanospheres containing rhodamine, image analysis
Description: 0.5 ml was taken at each time step. Plasma levels of rhodamine were measured by fluorescence detection. […] Organs were examined by fluorescence microscopy.

[3] = In vitro Rhodamine release (dialysis bag, phosphate buffer); format: physicochemical; conditions: 37° C.
Description: The in vitro Rhodamine release profiles from the (-PLA-PEG-PLA-)n multiblock NS were determined as follows: NS were precisely weighed and suspended in 10 ml of phosphate buffer solution. The NS suspension was introduced into a dialysis membrane bag (Spectra/por™, Molecular weight cut off: 2000-4000, Spectrum Medical Industries, Inc., CA, USA) that was placed in 150 ml of phosphate buffer. This solution was stirred at 37° C. At pre-determined time intervals, 3 ml aliquots of the release medium were withdrawn from the release medium. The release of Rhodamine was monitored using a spectrofluorometer at an excitation wavelength of […] and emission wavelength of 554 nm. The sample was replaced in the release medium. The samples were analyzed by fluorescence since sensitivity will be needed for the incoming blood samples analysis.

Rhodamine accumulation in the organs [2]: No Rhodamine accumulation
time of release [3]: ≤ 30 min
SMILES: CCN(CC)c1ccc2c(-c3ccccc3C(=O)O)c3ccc(=[N+](CC)CC)cc-3oc2c1 [Rhodamine, Rhodamine B]
t1/2 in the body [1]: 3 h
